According to patent publication US20210171589A1, “TRUNCATED CARTILAGE-HOMING PEPTIDES AND PEPTIDE COMPLEXES AND METHODS OF USE THEREOF” (BLAZE BIOSCIENCE, INC., priority 2018, published 2021):
Bridge positions count the residues as written; N and C are the ends. Peptide text beside a SMILES is read from it.

How the values were obtained:
[1] = tested on: cartilage (intervertebral discs, knee joints); assay: Whole body autoradiography of radiolabeled cartilage homing peptides; type: in vivo, Female Harlan athymic nude mice; details: for Signal of folded knotted peptide as compared to the linearized peptide of SEQ ID NO: 218: TABLE 8 versus TABLE 9; for Homing of radiolabeled peptide to cartilage: mice, 100 nmol via tail vein injection, 5 minutes to 48 hours
Description: This example illustrates peptide homing to cartilage mice 5 minutes to 48 hours after administration of a radiolabeled peptide. Signal from the radiolabeled peptides was found in all types of cartilage at each time point examined. Each peptide was radiolabeled by methylating […] as described in EXAMPLE 2. As such, the peptide may contain methyl or dimethyl lysines and a methylated or dimethlyated amino terminus. A dose of 100 nmol radiolabeled peptide was administered via tail vein injection in Female Harlan athymic nude mice, weighing 20-25 g. The experiment was done in duplicate (n=2 animals per group). Each radiolabeled peptide was allowed to freely circulate within the animal for the described time period before the animals were euthanized and sectioned.
Whole body autoradiography (WBA) sagittal sectioning was performed as follows. At the end of the dosing period, mice were frozen in a hexane/dry ice bath and then embedded in a frozen block of carboxymethylcellulose. […] Sections were allowed to dessicate in a freezer prior to imaging. For the autoradiography imaging, tape mounted thin sections were freeze dried and radioactive samples were exposed to phosphoimager plates. These plates were developed and the signal (densitometry) from each organ was normalized to the signal found in the cardiac blood of each animal. A signal in tissue darker than the signal expected from blood in that tissue indicates accumulation in a region, tissue, structure, or cell.

[2] = Stability testing of peptide in solution, RP-HPLC; type: physicochemical; details: 5 mg/mL in 50 mM Tris, 5% Mannitol, pH 7.6
Description: This example describes stability testing of peptides of the present disclosure. A 5 mg/mL solution of SEQ ID NO: 149 (also disclosed as SEQ ID NO: 46; non-GS version of SEQ ID NO: 149/SEQ ID NO: 46 are shown in SEQ ID NO: 128 and SEQ ID NO: 205) was prepared in 50 mM Tris, 5% Mannitol, pH 7.6. The stability of SEQ ID NO: 149 in solution was assessed by stressing the sample at 40° C. for 10 days and analyzed by RP-HPLC side-by-side with an unstressed sample prepared under the same conditions and stored at −20° C. […] This change was predominantly the result of an increase in area of one predominant impurity peak eluting after the main peak in the sample that was exposed to the higher temperature. No other impurities present in the initial sample increased substantially and no substantial new impurities were seen.

[3] = tested on: cartilage and kidneys; assay: Peptide homing with intact kidneys (autoradiography); type: in vivo, Female Harlan athymic nude mice
Description: Additionally, the peptide can be retained in cartilage for hours after treatment. The SEQ ID NO: 150 peptide was radiolabeled as in EXAMPLE 4 and 100 nmol of peptide was injected into a mouse with intact kidneys.
This example describes a dosing scheme for administering peptides to mice without kidney ligation. The peptide administered had the sequence of SEQ ID NO: 150. The peptide was radiolabeled by methylating lysines and the N-terminus, so the actual binding agent may contain methyl or dimethyl lysine(s) and a methylated or dimethylated amino terminus.
A target dosage of 100 nmol of each peptide carrying 10-25 μCi of ^14C was administered to Female Harlan athymic nude mice by a tail vein injection. Each peptide was allowed to freely circulate within the animal for either 4 hours or 24 hours before the animals were euthanized and sectioned.
This example illustrates peptide homing to cartilage in animals with intact kidneys. At the end of the 4 hour or 24 hour dosing periods in EXAMPLE 6, mice were frozen in a hexane/dry ice bath and then frozen in a block of carboxymethylcellulose. […]

[4] = tested on: cartilage; assay: Peptide homing with kidney ligation (autoradiography); type: in vivo, Female Harlan athymic nude mice; details: mice with ligated kidneys, 50-100 nmol via tail vein injection
Description: This example describes a dosing scheme for administering peptides to mice in conjunction with kidney ligation. Different dosages of the peptides of SEQ ID NO:149 and SEQ ID NO:150 were administered to Female Harlan athymic nude mice, weighing 20 g-25 g, via tail vein injection (n=2 mice per peptide). The experiment was done in duplicates. The kidneys were ligated to prevent renal filtration of the peptides. Each peptide was radiolabeled by methylating lysines and the N-terminus, so the actual binding agent may contain methyl or dimethyl lysine(s) and a methylated or dimethylated amino terminus.
A target dosage of 50-100 nmol of each peptide carrying 10-25 uCi of ^14C was administered to Female Harlan athymic nude mice while anesthetized. Each peptide was allowed to freely circulate within the animal before the animals were euthanized and sectioned.
This example illustrates peptide homing to cartilage of mice with kidneys that were ligated prior to peptide administration. At the end of the dosing period in EXAMPLE 4, mice were frozen in a hexane/dry ice bath and then frozen in a block of carboxymethylcellulose. […]

[5] = tested on: cartilage (intervertebral discs, knee joints); assay: Whole body autoradiography of radiolabeled cartilage homing peptides; type: in vivo, Female Harlan athymic nude mice

GSGVPINVRCRGSRDCLDPCRRAGMRFGRCINSRCHCTP [SEQ ID NO: 149]
Signal of folded knotted peptide as compared to the linearized peptide of SEQ ID NO: 218 ([1]; at 3 hours): ~20 fold
Signal of folded knotted peptide as compared to the linearized peptide of SEQ ID NO: 218 ([1]; at 24 hours): ~50 fold
Signal of radiolabeled peptide in IVD as a Percentage of Blood ([1]; intervertebral discs, 0.08 hours after 100 nmol via tail vein injection): 164 Percentage of Blood
Signal of radiolabeled peptide in IVD as a Percentage of Blood ([1]; intervertebral discs, 0.5 hours after 100 nmol via tail vein injection): 369 Percentage of Blood
Signal of radiolabeled peptide in IVD as a Percentage of Blood ([1]; intervertebral discs, 1 hour after 100 nmol via tail vein injection): 961 Percentage of Blood
Signal of radiolabeled peptide in IVD as a Percentage of Blood ([1]; intervertebral discs, 3 hours after 100 nmol via tail vein injection): 3213 Percentage of Blood
Signal of radiolabeled peptide in IVD as a Percentage of Blood ([1]; intervertebral discs, 8 hours after 100 nmol via tail vein injection): 3777 Percentage of Blood
Signal of radiolabeled peptide in IVD as a Percentage of Blood ([1]; intervertebral discs, 24 hours after 100 nmol via tail vein injection): 5391 Percentage of Blood
Signal of radiolabeled peptide in IVD as a Percentage of Blood ([1]; intervertebral discs, 48 hours after 100 nmol via tail vein injection): 3320 Percentage of Blood
Signal of radiolabeled peptide in Knee Joints as a Percentage of Blood ([1]; 0.08 hours after 100 nmol via tail vein injection): 404 Percentage of Blood
Signal of radiolabeled peptide in Knee Joints as a Percentage of Blood ([1]; 0.5 hours after 100 nmol via tail vein injection): 510 Percentage of Blood
Signal of radiolabeled peptide in Knee Joints as a Percentage of Blood ([1]; 1 hour after 100 nmol via tail vein injection): 1114 Percentage of Blood
Signal of radiolabeled peptide in Knee Joints as a Percentage of Blood ([1]; 3 hours after 100 nmol via tail vein injection): 4059 Percentage of Blood
Signal of radiolabeled peptide in Knee Joints as a Percentage of Blood ([1]; 8 hours after 100 nmol via tail vein injection): 4990 Percentage of Blood
Signal of radiolabeled peptide in Knee Joints as a Percentage of Blood ([1]; 24 hours after 100 nmol via tail vein injection): 2137 Percentage of Blood
Signal of radiolabeled peptide in Knee Joints as a Percentage of Blood ([1]; 48 hours after 100 nmol via tail vein injection): 843 Percentage of Blood
Homing of radiolabeled peptide to cartilage [1]: homed to and accumulated in the cartilage
Purity by RP-HPLC of stressed sample ([2]; 40° C. for 10 days): 93.5%
Visual inspection of the samples (solubility, precipitation) ([2]; 40° C. for 10 days versus −20° C.): no change in solubility
Initial purity by RP-HPLC (non-stressed sample) ([2]; stored at −20° C.): 96.4%

CC[C@H](C)[C@@H]1NC(=O)[C@@H]2CSSC[C@H](NC(=O)[C@H](CCCCN)NC(=O)[C@@H](NC(=O)[C@H](CC(N)=O)NC(=O)[C@@H](NC(=O)[C@@H]3CCCN3C(=O)[C@@H](NC(=O)CNC(=O)[C@H](CO)NC(=O)CN)C(C)C)[C@@H](C)CC)C(C)C)C(=O)N[C@@H](CCCNC(=N)N)C(=O)NCC(=O)N[C@@H](CO)C(=O)N[C@@H](CCCNC(=N)N)C(=O)N[C@@H](CC(=O)O)C(=O)N[C@H]3CSSC[C@H](NC(=O)[C@H](CCCCN)NC(=O)[C@H](CO)NC(=O)[C@H](CC(N)=O)NC1=O)C(=O)N[C@@H](Cc1c[nH]cn1)C(=O)N[C@H](C(=O)N[C@H](C(=O)N1CCC[C@H]1C(=O)O)[C@@H](C)O)CSSC[C@H](NC(=O)[C@@H]1CCCN1C(=O)[C@H](CC(=O)O)NC(=O)[C@H](CC(C)C)NC3=O)C(=O)N[C@@H](CCCCN)C(=O)N[C@@H](CCCCN)C(=O)N[C@@H](C)C(=O)NCC(=O)N[C@@H](CCSC)C(=O)N[C@@H](CCCNC(=N)N)C(=O)N[C@@H](Cc1ccccc1)C(=O)NCC(=O)N[C@@H](CCCCN)C(=O)N2 [SEQ ID NO: 150] (H-GSGVPINVKCRGSRDCLDPCKKAGMRFGKCINSKCHCTP-OH; disulfide 10-30, 16-35, 20-37; N-terminus and C-terminus assumed)
Peptide distribution (14C signal) ([3]; mice with intact kidneys, 100 nmol via tail vein injection, 4 hours or 24 hours): distribution in joint and other cartilage as well as kidneys
Retention and tissue distribution in cartilage ([3]; mouse with intact kidneys, 100 nmol, 24 hours after administration): retention of and the tissue distribution in the cartilage
Peptide distribution (14C signal) [4]: distribution in joint and other cartilage

GSKCRGSRDCLDPCKKAGMRFGKCINSKCHCTP [SEQ ID NO: 27]
Peptide distribution (14C signal) [4]: distribution in nasal, spinal, tracheal, and other cartilage

GSGVPINVRSRGSRDSLDPSRRAGMRFGRSINSRSHSTP [SEQ ID NO: 218, reference compound]
Signal of radiolabeled peptide in IVD as a Percentage of Blood ([1]; 3 hr, Intact Kidneys): 177 Percentage of Blood
Homing of radiolabeled peptide to cartilage [1]: homed to cartilage to a much lesser extent
Signal of radiolabeled peptide in IVD as a Percentage of Blood ([5]; 3 hr, Ligated Kidneys): 117 Percentage of Blood
Signal of radiolabeled peptide in IVD as a Percentage of Blood ([5]; 24 hr, Intact Kidneys): 104 Percentage of Blood
